This is an account of results in patent US20240197716A1, “TREATMENTS FOR CUSHING'S SYNDROME THAT DO NOT SIGNIFICANTLY AFFECT CARDIAC RHYTHMS” (Corcept Therapeutics Incorporated, priority 2022, published 2024).

Series [1] concerns healthy volunteers. Kind of series: First-in-Human SAD/MAD study (NCT03508635), ECG / QTcF. As to conditions: for placebo-corrected predicted change in QTc at Cmax: doses of 50, 150, 250 and 500 mg. The series is classed as in vivo. On the procedure: A phase 1, 3-part, single-center, First-in-Human study (NCT03508635) included 103 healthy volunteers who received single or multiple ascending doses (SAD/MAD) of relacorilant (up to 500 mg QD) for up to 14 days; 24 received placebo.
In all studies, ECG data were collected and the heart rate-corrected QT interval using Fridericia's formula (QTcF) was calculated. Participants with a family history of or risk factors for torsades de pointes or with a prolonged QT interval at screening were not eligible to participate. Exposure-response analysis of the effect of relacorilant on the heart-rate corrected QT interval (QTc) was conducted using a linear model with an intercept.
In a 3-part, single-center, First-in-Human study (NCT03508635, “phase 1 study”), 103 healthy volunteers received single or multiple ascending doses of relacorilant (up to 500 mg QD) for up to 14 days; 24 received placebo. In a randomized, partial double-blind, crossover Thorough QT study (NCT04795479, “TQT study”), the effect of multiple therapeutic (400 mg QD, n=25) and supra-therapeutic (800 mg QD, n=28) doses of relacorilant on cardiac repolarization was studied in healthy volunteers. A single dose of moxifloxacin (400 mg, n=28) was used as a positive control; 29 participants received placebo. In a single-arm, open-label phase 2 study (NCT02804750, “CS study”), 17 patients with CS received low-dose relacorilant (100-200 mg QD) for 12 weeks and 18 patients received high-dose relacorilant (250-400 mg QD) for 16 weeks. In all studies, ECG data were collected, and the heart rate-corrected QT interval using Fridericia's formula (QTcF) was assessed.
ECG data were available from 42 and 12 participants randomized to relacorilant or placebo, respectively, during the single ascending dose (SAD) phase, and from 34 and 12 participants randomized to relacorilant or placebo, respectively, during the multiple ascending dose (MAD) phase. Baseline mean (SD) QTcF values were within expectations for a healthy population (range […] (11.7) msec to 403.5 (9.4) msec) and were similar in the respective relacorilant and placebo cohorts during the SAD and MAD study phases (see Table 1) (where the value in parentheses indicates standard deviation).

The nature of series [2]: Plasma concentrations in TQT study (LC-MS/MS, non-compartmental PK). As to conditions: for Cmax: human, plasma, oral, Day 5, read-out: Geometric Mean Cmax. Format: in vivo, human. How it is done: PK analyses were performed using non-compartmental methods to obtain estimates of the following parameters, where possible: […] Day 1: Cmax, Tmax, AUClast, and AUC0-24; Day 5: Cmax, Tmax, Cmin, AUClast, AUC0-tau, Cavg, FI, and AR. For moxifloxacin: Cmax, Tmax, AUClast, and AUC0-24. […] PK blood sampling for Day 1 was completed prior to dosing on Day 2.

The subject of series [3] is Cushing's syndrome patients. The series can be described thus: Separate study: relacorilant with another drug known to cause QT prolongation. The series is classed as in vivo, human. As to conditions: at least 12 patients also receiving fluoroquinoline, imidazole derivative, macrolide or protease inhibitor drug.
Where [4] appears, read: MAD, concentration-QTc linear model, FIG. 2B.
[5] abbreviates: SAD, concentration-QTc linear model, FIG. 2A.

Where two headings read alike, the source gives them in different places.

`Cn1cc(S(=O)(=O)N2CCC3=Cc4c(cnn4-c4ccc(F)cc4)C[C@]3(C(=O)c3cc(C(F)(F)F)ccn3)C2)cn1` [relacorilant, ((R)-(1-(4-fluorophenyl)-6-((1-methyl-1H-pyrazol-4-yl)sulfonyl)-4,4a,5,6,7,8-hexahydro-1H-pyrazolo[3,4-g]isoquinolin-4a-yl)(4-(trifluoromethyl)pyridine-2-yl)methanone)]: in series [1] (setting [4]), the “MAD equation ΔΔQTcF intercept” value was -1.804 ms and the MAD equation ΔΔQTcF slope versus relacorilant concentration was -0.00234 ms/ng/mL. For the same molecule, the “placebo-corrected predicted change in QTc at Cmax” value in series [1] (MAD, FIG. 2B) is “less than 10 ms”. The “mean ΔΔQTcF at any time point” value in series [1] (SAD and MAD study phases, all doses) is not above 5 ms. In addition, in series [1] (setting [5]), the “SAD equation ΔΔQTcF intercept” value is -0.005 ms and the SAD equation ΔΔQTcF slope versus relacorilant concentration is -0.000588 ms/ng/mL. Also, the “placebo-corrected predicted change in QTc at Cmax” value in series [1] (SAD, FIG. 2A) was “less than 5 ms”. Further, in series [1] (any of the dosing groups), the “Mean placebo-corrected ΔQTcF (ΔΔQTcF) at any time point” value is reported as not above 3 ms. The “prolonging effect on ΔΔQTcF exceeding the 10-msec threshold” value in series [1] (modeled SAD and MAD results, plasma concentrations up to approximately 4000 ng/ml) is listed as “excluded”. Moreover, in series [1] (up to 500 mg QD), the “instances of post-dose QTcF interval>450 ms or QTcF interval increase of >30 ms” value was “No instances”. Moreover, the “effect on ECG parameters” value in series [1] (up to 500 mg daily) is on record as “did not have a clinically relevant adverse effect on ECG parameters”. Also, in series [2] (400 mg QD), the Cmax was 1830 ng/mL. In series [2] (800 mg QD), the Cmax was found to be 2710 ng/mL. For the same molecule, the “observed range of plasma concentrations, upper end” value in series [2] (supra-therapeutic dosing (800 mg)) is listed as approximately 4500 ng/mL. Moreover, the QT prolongation entry in series [3] was “no clinically significant QT prolongation”.
